US20190040004A1, “NEW COMPOUNDS FOR THE TREATMENT AND/OR PREVENTION OF PARASITIC DISEASES AND METHOD OF PRODUCTION OF THEREOF” (INSTITUT DE RECHERCHE POUR LE DEVELOPPEMENT (I.R.D.), priority 2013, published 2019)
Entries after “also recorded” stand apart in the source; their conditions may differ. Read-outs that look alike come from different tables or passages of the source.

What was measured:
THP-1 cells = assay: MTT cytotoxicity on THP-1 host cells; format: cell-based
Experimental: (§1) Antiparasitic activity of a compound is represented by ICo50, which is calculated with Prism software (Prism4 for MacOSX Version 5.0b, December 2008). The cytoxicity of a compound against the host cells of L. infantum and T. gondii, such as THP-1 or HFF cells, was determined with a MTT assay, according to previously described protocol (Sereno et al., Antimicrob Agents Chemother. 2001, 45(4):1168-73). THP-1 is derived from the peripheral blood ofa human with acute monocytic leukemia.

[1] = tested on: T. gondii (GFP expressing parasites) in HFF; assay: T. gondii proliferation in human foreskin fibroblasts; format: cell-based, Toxoplasma gondii; details: Toxoplasma gondii, Fibroblast, 24 h, 24 h
Experimental: To assess the drug activity on toxoplasma proliferation, human foreskin fibroblasts (HFF) were infected with GFP expressing parasites for 30 mns (Striepen et al., Mol Biochem Parasitol. 1998, 92(2):325-38). Cells were then washed and drugs added at various concentrations ranging from 0.1 to 10 uM. After 24 h, cells were washed and fixed (PBS-formaldehyde 2%) and nucleus stained with Hoechst 33258 (2 μg/ml). The number of infected cells i.e cells harbouring a parasitophorous vacuole and the number of parasites per vacuole were determined using an Olympus ScanR microscope (Olympus).
as §1

HFF cells = assay: MTT cytotoxicity on HFF host cells; format: cell-based; details: for HFF LD50: human
Experimental: as §1

[2] = tested on: T1, HDAC activity from HELA nuclear extract; assay: Fluorimetric HDAC assay, HeLa nuclear extract; format: biochemical, human; details: HeLa nuclear extract, fluorimetric HDAC kit; read-out: HELA Nuclear extracts IC50
T1 construct: HELA Nuclear extracts IC50; other: HeLa nuclear extract, fluorimetric HDAC kit; […]
Experimental: (§2) HDAC inhibitory activity was determined by a fluorimetric HDAC assay kit (Active-motif, Belgium), according to manufacturer's instructions. […] Fluorogenic substrate (10 μL) was added, reaction was allowed to proceed for 30 min at room temperature, then stopped by the addition of a developer containing Tichostatin A.

[3] = tested on: HDAC activity from HELA nuclear extract; assay: Fluorimetric HDAC assay, HeLa nuclear extract; format: biochemical, human; details: read-out: IC50 (better HDAC inhibitor among 9 tested compounds)
Experimental: as §2

[4] = tested on: Leishmania infantum luciferase expressing strain (MHOM/MA/ITMAP269); assay: microbe, parasite or virus in culture; format: cell-based; details: Leishmania infantum; antiparasitic activity; read-out: L. infantum IC50
From the text: THP-1 is derived from the peripheral blood ofa human with acute monocytic leukemia.

recombinant HDAC6 = target: T2, recombinant HDAC6 (Homo sapiens, UniProt Q9UBN7); assay: Recombinant HDAC6 inhibition; format: biochemical
T2 sequence (Q9UBN7 1-1215): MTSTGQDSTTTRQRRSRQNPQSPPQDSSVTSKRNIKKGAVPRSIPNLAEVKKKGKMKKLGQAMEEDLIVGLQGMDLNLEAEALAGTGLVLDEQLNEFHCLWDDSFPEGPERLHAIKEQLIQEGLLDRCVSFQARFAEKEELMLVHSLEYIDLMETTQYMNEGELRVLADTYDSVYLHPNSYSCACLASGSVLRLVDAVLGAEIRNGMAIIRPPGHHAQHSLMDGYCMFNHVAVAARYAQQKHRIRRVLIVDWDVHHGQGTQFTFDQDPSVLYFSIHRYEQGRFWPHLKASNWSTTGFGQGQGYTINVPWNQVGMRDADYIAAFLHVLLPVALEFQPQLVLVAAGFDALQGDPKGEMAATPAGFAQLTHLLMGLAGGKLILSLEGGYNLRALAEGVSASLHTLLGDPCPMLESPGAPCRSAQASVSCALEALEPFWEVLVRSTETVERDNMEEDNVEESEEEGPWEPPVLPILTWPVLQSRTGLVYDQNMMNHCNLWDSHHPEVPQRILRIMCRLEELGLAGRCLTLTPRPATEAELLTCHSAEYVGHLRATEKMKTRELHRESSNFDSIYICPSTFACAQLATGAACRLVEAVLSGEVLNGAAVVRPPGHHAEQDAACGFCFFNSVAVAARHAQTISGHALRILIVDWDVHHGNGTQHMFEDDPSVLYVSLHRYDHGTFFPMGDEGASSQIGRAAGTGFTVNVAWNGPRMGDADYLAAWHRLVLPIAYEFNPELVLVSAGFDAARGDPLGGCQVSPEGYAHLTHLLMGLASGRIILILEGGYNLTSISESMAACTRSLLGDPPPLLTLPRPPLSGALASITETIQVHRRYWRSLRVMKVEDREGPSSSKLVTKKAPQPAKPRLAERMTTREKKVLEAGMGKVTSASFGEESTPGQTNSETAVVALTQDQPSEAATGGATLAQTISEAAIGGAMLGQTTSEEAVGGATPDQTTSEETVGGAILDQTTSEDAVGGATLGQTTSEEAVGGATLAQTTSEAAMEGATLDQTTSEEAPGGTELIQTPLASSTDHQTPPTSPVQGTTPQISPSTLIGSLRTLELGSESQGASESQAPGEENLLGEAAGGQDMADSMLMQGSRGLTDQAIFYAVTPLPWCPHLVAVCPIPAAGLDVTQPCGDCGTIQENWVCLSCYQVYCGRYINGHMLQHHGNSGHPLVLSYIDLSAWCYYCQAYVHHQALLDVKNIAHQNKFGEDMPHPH

[5] = tested on: type II Prugniaud parasites; assay: Type II Prugniaud Toxoplasma proliferation in HFF; format: cell-based, Toxoplasma gondii; details: 0.025 to 0.8 uM, 24 h
Experimental: (§3) To compare the activity of compounds according to the invention to that of prior art on toxoplasma proliferation, human foreskin fibroblasts (HFF) were plated in 96-wells plate (10 000 cells per well). Twenty-four hours later, cells were infected with 40 000 parasites, either RH-YFP type I or type II Prugniaud parasites or tachyzoites (kindly provided by B. Striepen, Athens) for one hour. Cells were then washed and drugs (compound D16 of formula
(§4) (FIG. 4 and FIG. 5) or compound according to the invention (363) (FIG. 6) added at various concentrations ranging from 0.025 to 0.8 uM. After 24 h, cells were washed and fixed (PBS-formaldehyde 2%) and nucleus stained with Hoechst 33258 (2 μg/ml). The number of infected cells ie. cells harbouring a parasitophorous vacuole and the number of parasites per vacuole was determined using an Olympus ScanR microscope (Olympus).

recombinant HDAC1 = recombinant HDAC1 (Homo sapiens, UniProt Q13547); assay: Recombinant HDAC1 inhibition; format: biochemical; details: read-out: IC50 recombinant HDAC 1
Experimental: FIG. 2 illustrates the capacity of the different compounds of 600 nM to inhibit HDAC activity from HELA nuclear extract and from HDAC-recombinant proteins (HDAC 1, HDAC 3, HDAC 6, HDAC 8).
HDAC inhibitory activity was determined by a fluorimetric HDAC assay kit (Active-motif, Belgium), according to manufacturer's instructions. Briefly, 30 μL of HeLa nuclear extract were mixed with 5 μL of 10× compound to be tested and 10 μL of assay buffer. Fluorogenic substrate (10 μL) was added, reaction was allowed to proceed for 30 min at room temperature, then stopped by the addition of a developer containing Tichostatin A. Fluorescence was monitored after 30 min at excitation and emission wavelengths of 360 and 460 nm, respectively. […].

type I RH-YFP parasites = assay: RH-YFP type I Toxoplasma proliferation in HFF; format: cell-based, Toxoplasma gondii; details: 0.025 to 0.8 uM, 24 h
Experimental: as §3, §4

[6] = HFF infected, read-out: T. gondi IC50

recombinant HDAC1, sequence (Q13547 whole entry): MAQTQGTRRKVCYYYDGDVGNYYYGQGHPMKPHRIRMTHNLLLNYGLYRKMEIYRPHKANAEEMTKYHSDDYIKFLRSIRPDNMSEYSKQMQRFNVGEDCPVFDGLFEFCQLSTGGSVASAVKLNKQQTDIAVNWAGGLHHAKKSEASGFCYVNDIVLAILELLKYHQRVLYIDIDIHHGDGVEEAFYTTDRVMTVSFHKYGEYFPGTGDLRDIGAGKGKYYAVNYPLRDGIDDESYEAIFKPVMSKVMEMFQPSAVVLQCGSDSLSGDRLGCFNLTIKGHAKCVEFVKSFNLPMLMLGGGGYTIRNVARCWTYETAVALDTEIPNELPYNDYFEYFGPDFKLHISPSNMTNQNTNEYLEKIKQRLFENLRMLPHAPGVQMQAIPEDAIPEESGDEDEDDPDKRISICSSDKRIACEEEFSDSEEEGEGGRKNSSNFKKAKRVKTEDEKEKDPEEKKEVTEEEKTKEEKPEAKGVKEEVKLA

SMILES | IC50 [1, 6] [nM] | IS Selectivity index LD50 (HFF)/IC50 T. gondii (HFF cells) | HFF LD50 (HFF cells) [µM] | IS Selectivity index LD50 (THP-1)/IC50 T. gondii (THP-1 cells) | THP-1 LD50 (THP-1 cells; human) [µM] | IC50 [2] [nM] | further results
O=C(CCCCCCC(=O)Nc1ccccc1)NO [SAHA, suberoylanilide hydroxamic acid, reference compound] | – | – | – | – | – | – | THP-1 LD50 (THP-1 cells; MTT cytotoxicity): >200 µM
COc1cccc(CC(=O)NCc2ccc(C(=O)NO)cc2)c1 [Compound 362] | 52500 | >8 | >400 | 0.5 | 30.5 ± 3.0 | 518 | –
O=C(NO)c1ccc(NC(=O)c2cccc(F)c2)cc1 [Compound 349] | > 50000 | – | >400 | – | 264 ± 8.0 | 633 | –
Cc1nc(-c2ccc(C(=O)NCc3ccc(C(=O)NO)cc3)cc2)cs1 [Compound 360] | – | 4.5 | 22.6 ± 9.5 | 0.4 | 2.2 ± 0.5 | 399 | IC50 [3]: 2200 nM; IC50 [4]: > 60000 nM
O=C(NO)c1ccc(NS(=O)(=O)c2cccc(F)c2)cc1 [Compound 351] | – | 2.3 | 116.5 ± 35 | 1.53 | – | 881 | IC50 ([1]; read-out: T. gondi IC50, HFF infected, 24 h): 50000 nM
COc1ccccc1CNC(=O)c1ccc(C(=O)NO)cc1 [Compound D16, reference compound] | – | – | – | – | – | 7740 | IC50 (recombinant HDAC6): 198 nM; inhibitory activity on type II Prugniaud parasites proliferation, in words [5]: no inhibitory activity; inhibitory activity on type II Prugniaud parasites proliferation, in words ([5]; listed as Dl6): lack of inhibitory effect; IC50 (recombinant HDAC1): > 10000 nM; inhibitory activity on type I RH-YFP parasites proliferation, in words (type I RH-YFP parasites): lack of inhibitory effect; also recorded: no inhibitory activity
